Laboratory results as given in ChEMBL document CHEMBL5257035, “Nucleoside Derived Antibiotics to Fight Microbial Drug Resistance: New Utilities for an Established Class of Drugs?” (J Med Chem, 2016).
In brackets after ≈: the same amount, converted by molar mass.

What was measured:
Pseudomonas aeruginosa [1] = assay: Antibacterial activity against Pseudomonas aeruginosa assessed as bacterial growth reduction; type: functional
[2] = Cytotoxicity against human HepG2 cells assessed as reduction in cell viability incubated for 72 hrs by MTT assay; type: toxicity, cell-based
Coccidioides immitis = assay: Antifungal activity against Coccidioides immitis assessed as reduction in fungal growth; type: functional
Cryptococcus neoformans = assay: Antifungal activity against Cryptococcus neoformans assessed as reduction in fungal growth; type: functional
Pseudomonas aeruginosa [3] = assay: Antibacterial activity against Pseudomonas aeruginosa assessed as bacterial growth inhibition; type: functional
[4] = system: Mycolicibacterium smegmatis; assay: Antibacterial activity against Mycobacterium smegmatis SANK75075 assessed as bacterial growth inhibition; type: functional
Staphylococcus aureus = assay: Antibacterial activity against methicillin-resistant Staphylococcus aureus SR3637 assessed as reduction in bacterial growth inhibition; type: functional
[5] = target: T1, Phospho-N-acetylmuramoyl-pentapeptide-transferase (Escherichia coli K-12, UniProt P0A6W3); assay: Inhibition of MraY in Escherichia coli K12
T1 sequence (P0A6W3 whole entry): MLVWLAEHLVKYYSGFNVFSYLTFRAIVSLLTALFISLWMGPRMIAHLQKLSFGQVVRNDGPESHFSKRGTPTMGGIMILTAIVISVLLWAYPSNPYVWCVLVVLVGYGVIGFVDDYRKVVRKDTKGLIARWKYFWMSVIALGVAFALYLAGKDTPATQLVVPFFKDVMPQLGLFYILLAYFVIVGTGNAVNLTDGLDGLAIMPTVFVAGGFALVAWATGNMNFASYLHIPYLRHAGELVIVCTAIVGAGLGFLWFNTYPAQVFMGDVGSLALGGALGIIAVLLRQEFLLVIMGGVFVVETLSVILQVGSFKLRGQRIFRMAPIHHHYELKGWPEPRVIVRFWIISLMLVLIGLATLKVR

[6] = system: Cutaneotrichosporon cutaneum; assay: Antifungal activity against Trichosporon cutaneum 3071 assessed as reduction in microbial growth inhibition for 48 hrs by broth microdilution assay; type: functional
Candida albicans = assay: Antifungal activity against Candida albicans SC5314 assessed as reduction in microbial growth inhibition incubated for 48 hrs by broth microdilution assay; type: functional

C[C@@H]([C@H](NC(=O)[C@H](Cc1ccccc1)NC(=O)N[C@@H](Cc1c[nH]c2ccccc12)C(=O)O)C(=O)NC[C@H]1C[C@@H](O)[C@H](n2ccc(=O)[nH]c2=O)O1)N(C)C(=O)CN
MIC (Pseudomonas aeruginosa [1]): 8 µg/mL (≈ 10.3 µM)

CCCCOc1ccc(-c2ccc(CC[C@H](NC(=O)[C@@H](NC(=O)N[C@H](C(=O)O)C(C)C)[C@@H]3CCNC(=N)N3)C(=O)NCCCNC(C(=O)O)[C@H](O[C@@H]3O[C@H](CN)[C@@H](O)[C@H]3O)[C@H]3O[C@@H](n4ccc(=O)[nH]c4=O)[C@H](O)[C@@H]3O)cc2)cc1 (some centres not stated)
IC50 at 72 h [2]: > 100 µg/mL

N[C@@H](Cc1ccc(O)cc1)C(=O)N[C@H](C(=O)O)[C@@H]1C[C@@H](O)[C@@H](O)[C@H](n2ccc(=O)[nH]c2=O)O1
MIC (Coccidioides immitis): 0.25 µg/mL (≈ 0.538 µM) | MIC (Cryptococcus neoformans): 0.25 µg/mL (≈ 0.538 µM)

NC(=O)c1ncn([C@@H]2O[C@H](CO)[C@@H](O)[C@H]2O)n1 [RIBAVIRIN]
MIC (Pseudomonas aeruginosa [3]): 3 µg/mL (≈ 12.3 µM)

CCCCCCCCCNC(=O)C1=C[C@@H](O)[C@@H](O)[C@H](O[C@@H](C(N)=O)[C@H]2O[C@@H](n3ccc(=O)[nH]c3=O)[C@H](O)[C@@H]2OC)O1
MIC [4]: 12.5 µg/mL (≈ 21.4 µM)

CCCCCCCCCCCCCC(=O)NC[C@@H]1C[C@H]2[C@@H](C(=O)N1CCCNC(=N)N)[C@@H]([C@H]1O[C@@H](n3ccc(=O)[nH]c3=O)[C@H](O)[C@@H]1O)ON2CCCN
MIC (Staphylococcus aureus): 8 µg/mL (≈ 10.7 µM)

CSCC[C@H](NC(=O)NC(Cc1cccc(O)c1)C(=O)O)C(=O)NC(CN(C)C(=O)[C@@H](N)C(Cc1cccc(O)c1)NCC(=O)O)C(=O)N/C=C1/C[C@@H](O)[C@H](N2CCC(=O)NC2=O)O1 (some centres not stated)
MIC (Pseudomonas aeruginosa [3]): 1.5 µg/mL (≈ 1.64 µM)

CCCCCCCCCCCNC(=O)C1=C[C@@H](O)[C@@H](O)[C@H](O[C@@H](C(N)=O)[C@H]2O[C@@H](n3ccc(=O)[nH]c3=O)[C@H](O)[C@@H]2OC)O1
MIC [4]: 12.5 µg/mL (≈ 20.4 µM)

CSCC[C@H](N)C(=O)N[C@H](C(=O)O)[C@@H]1C[C@@H](O)[C@@H](O)[C@H](n2ccc(=O)[nH]c2=O)O1
MIC (Coccidioides immitis): 0.25 µg/mL (≈ 0.578 µM) | MIC (Cryptococcus neoformans): 0.25 µg/mL (≈ 0.578 µM)

CO[C@H]1[C@@H](O)[C@H](n2ccc(=O)[nH]c2=O)O[C@@H]1[C@@H](O[C@@H]1OC(C(=O)Nc2ccccc2)=C[C@@H](O)[C@H]1O)C(N)=O
MIC [4]: 6.25 µg/mL (≈ 11.7 µM)

CC(C)[C@H](NC(=O)N[C@H](C(=O)N[C@H](CCCCCCCc1ccc(-c2ccccc2)cc1)C(=O)NCCCNC(C(=O)O)[C@H](O[C@@H]1O[C@H](CN)[C@@H](O)[C@H]1O)[C@H]1O[C@@H](n2ccc(=O)[nH]c2=O)[C@H](O)[C@@H]1O)[C@@H]1CCNC(=N)N1)C(=O)O (some centres not stated)
IC50 at 72 h [2]: > 100 µg/mL

CC(C)C[C@H](NC(=O)N[C@@H](Cc1ccc(O)cc1)C(=O)O)C(=O)N[C@H](C(=O)NCC1C[C@@H](O)[C@H](n2ccc(=O)[nH]c2=O)O1)[C@H](C)N(C)C(=O)[C@H](C)N (some centres not stated)
MIC (Pseudomonas aeruginosa [1]): 16 µg/mL (≈ 21.8 µM)

CC(C)[C@H](NC(=O)N[C@H](C(=O)N[C@@H](CCCCCCCc1ccc(-c2ccccc2)cc1)C(=O)NCCCNC(C(=O)O)[C@H](O[C@@H]1O[C@H](CN)[C@@H](O)[C@H]1O)[C@H]1O[C@@H](n2ccc(=O)[nH]c2=O)[C@H](O)[C@@H]1O)[C@@H]1CCNC(=N)N1)C(=O)O (some centres not stated)
IC50 at 72 h [2]: > 100 µg/mL

NC[C@H]1O[C@@H](OC[C@@H]2C[C@@H](O)[C@H](n3ccc(=O)[nH]c3=O)O2)[C@H](O)[C@@H]1O
IC50 [5]: 10 µM

CCCCNC(=O)C1=C[C@@H](O)[C@@H](O)[C@H](O[C@@H](C(N)=O)[C@H]2O[C@@H](n3ccc(=O)[nH]c3=O)[C@H](O)[C@@H]2OC)O1
MIC [4]: 12.5 µg/mL (≈ 24.3 µM)

CC(C)C[C@@H](NC(=O)[C@@H](NC(=O)N[C@H](C(=O)O)C(C)C)[C@@H]1CCNC(=N)N1)C(=O)NCCCNC(C(=O)O)[C@H](O[C@@H]1O[C@H](CN)[C@@H](O)[C@H]1O)[C@H]1O[C@@H](n2ccc(=O)[nH]c2=O)[C@H](O)[C@@H]1O (some centres not stated)
IC50 at 72 h [2]: > 100 µg/mL

CC(C)C[C@H](NC(=O)N[C@@H](Cc1c[nH]c2ccccc12)C(=O)O)C(=O)N[C@H](C(=O)NC[C@H]1C[C@@H](O)[C@H](n2ccc(=O)[nH]c2=O)O1)[C@H](C)N(C)C(=O)CN
MIC (Pseudomonas aeruginosa [1]): 4 µg/mL (≈ 5.39 µM)

C[C@H](N)C(=O)N(C)[C@@H](C)[C@H](NC(=O)[C@H](Cc1ccccc1)NC(=O)N[C@@H](Cc1c[nH]c2ccccc12)C(=O)O)C(=O)NCC1C[C@@H](O)[C@H](n2ccc(=O)[nH]c2=O)O1 (some centres not stated)
MIC (Pseudomonas aeruginosa [1]): 16 µg/mL (≈ 20.3 µM)

C/C=C1\CN(C(=O)[C@@H](NC(=O)[C@@H](N)[C@H](O)[C@@H](O)COC(N)=O)[C@H]2O[C@@H](n3cc(C=O)[nH]c3=O)[C@H](O)[C@@H]2O)[C@H]1C(=O)O
MIC [6]: 0.5 µg/mL | MIC (Candida albicans): > 256 µg/mL
